IC50 data for 28 compounds are collected here from patent US20170000749A1, “Methods for Treating Cognitive Disorders Using Inhibitors of Histone Deacetylase” (Forum Pharmaceuticals, Inc., priority 2008, published 2017).

Like-named read-outs stand apart in the source and are kept apart here.

Assay [1] concerns HDAC activity in primary mouse cortical cultures. In words: Whole-Cell Histone Deacetylase (HDAC) Inhibition Assay in Primary Mouse Cortical Cultures. Format: cell-based. The method, boiled down:
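Primary neocortical neurons from E17 Balb/C mouse embryos were plated at 50000 cells/well and treated at DIV9 with ten-point DMSO dilutions for 16-18 h at 37° C, in triplicate. BOC-Lys(Ac)-AMC substrate was then added for 1 h. Fluor de Lys developer containing 1 uM TSA produced a fluorophore, which was read.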

The target of assay [2] is one or more of HDAC-1, HDAC-2, HDAC-3, HDAC-4, HDAC-5, HDAC-6, HDAC-7, HDAC-8, HDAC-9, HDAC-10 and HDAC-11. Nature of the assay: Inhibition of Histone Deacetylase Enzymatic Activity (Boc-Lys(Ac)-AMC substrate, Fluor-de-Lys developer). To be noted: read-out: HDAC Inhibition (IC50 μM) HDAC Enzyme. Format: biochemical. As for the experimental part: The following protocol is used to assay the compounds of the disclosure.
The mixture is pre-incubated for 5 minutes at room temperature. The reaction is started by bringing the temperature to 37° C. and adding 16 μl substrate. Total reaction volume is 50 μl.
In the Tables 8, 9 and 10, A≦0.05 μM; 0.05 μM<B≦0.1 μM; 0.1 μM<C≦1 μM; and 1 μM<D≦10 μM.

Where [3] appears, read: whole-cell (WC), mouse cortical neurons, Table 8, read-out: HDAC Inhibition (IC50 μM) WC mouse cortical neurons.
Where [4] appears, read: read-out: HDAC Inhibition (IC50 μM) WC mouse cortical neurons, Table 10.

In the case of `COc1cccc2c1Oc1ccc(C(F)(F)F)cc1N=C2c1ccc(C(=O)NO)cc1` [(Z)-N-hydroxy-4-(4-methoxy-8-(trifluoromethyl)dibenzo[b,f][1,4]oxazepin-11-yl)benzamide], the results for the IC50 in assay [1] (setting [3]) and in assay [2] (Table 8) were 5 to 15 µM and 0.1 to 1 µM, respectively.
On the same counts, the results for `O=C(NO)c1ccc(C2=Nc3ccccc3N(CCN3CCOCC3)c3ncccc32)cc1` [(Z)-N-hydroxy-4-(11-(2-morpholinoethyl)-11H-benzo[b]pyrido[2,3-e][1,4]diazepin-5-yl)benzamide] are 1 to 5 µM and 0.05 to 0.1 µM.
As for `O=C(NO)c1ccc(C2=Nc3ccccc3N(CCCN3CCOCC3)c3ncccc32)cc1` [(Z)-N-hydroxy-4-(11-(3-morpholinopropyl)-11H-benzo[b]pyrido[2,3-e][1,4]diazepin-5-yl)benzamide], the results for the IC50 in assay [1] (setting [3]) and in assay [2] (Table 8) were 1 to 5 µM and 0.1 to 1 µM, respectively.
The like results for `CC(C)N1c2ccccc2N=C(c2ccc(C(=O)NO)cc2)c2cccnc21` [(Z)-N-hydroxy-4-(11-isopropyl-11H-benzo[b]pyrido[2,3-e][1,4]diazepin-5-yl)benzamide] were, in that order, less than 1 µM and less than 0.05 µM.
On to `O=C(CCCCCN1C(=O)CN=C(c2ccccc2)c2ccccc21)NO` [(Z)-N-hydroxy-6-(2-oxo-5-phenyl-2,3-dihydro-1H-benzo[e][1,4]diazepin-1-yl)hexanamide], for which the IC50 (in general, the concentration needed to halve the response being measured) in assay [1] (setting [4]) is 1 to 5 µM; in assay [2] (Table 10) it was 0.1 to 1 µM.
The like results for `O=C(CCCCCCCN1C(=O)CN=C(c2ccccc2)c2ccccc21)NO` [(Z)-N-hydroxy-8-(2-oxo-5-phenyl-2,3-dihydro-1H-benzo[e][1,4]diazepin-1-yl)octanamide] were, in that order, 1 to 5 µM and 0.1 to 1 µM.
Take `COc1cccc2c1C(c1ccc(C(=O)NO)cc1)=Nc1ccccc1O2` [(Z)—N-hydroxy-4-(1-methoxydibenzo[b,f][1,4]oxazepin-11-yl)benzamide]: the results for the IC50 in assay [1] (setting [3]) and in assay [2] (Table 8) were greater than 15 µM and 0.1 to 1 µM, respectively.
Take `COc1ccc2c(c1)C(c1ccc(C(=O)NO)cc1)=Nc1ccccc1O2` [(Z)—N-hydroxy-4-(2-methoxydibenzo[b,f][1,4]oxazepin-11-yl)benzamide]: the results for the IC50 in assay [1] (setting [3]) and in assay [2] (Table 8) were 5 to 15 µM and 0.1 to 1 µM, respectively.
On the same counts, the results for `O=C(NO)c1ccc(C2=Nc3ccccc3Oc3cc(C(F)(F)F)ccc32)cc1` [(Z)—N-hydroxy-4-(3-(trifluoromethyl)dibenzo[b,f][1,4]oxazepin-11-yl)benzamide] are greater than 15 µM and 0.05 to 0.1 µM.
The like results for `COc1ccc2c(c1)Oc1ccccc1N=C2c1ccc(C(=O)NO)cc1` [(Z)—N-hydroxy-4-(3-methoxydibenzo[b,f][1,4]oxazepin-11-yl)benzamide] were, in that order, 1 to 5 µM and 0.1 to 1 µM.
The like results for `Cc1ccc2c(c1)Oc1ccccc1N=C2c1ccc(C(=O)NO)cc1` [(Z)—N-hydroxy-4-(3-methyldibenzo[b,f][1,4]oxazepin-11-yl)benzamide] were, in that order, 1 to 5 µM and less than 0.05 µM.
In the case of `O=C(NO)c1ccc(C2=Nc3ccccc3Oc3cc(N4CCOCC4)ccc32)cc1` [(Z)—N-hydroxy-4-(3-morpholinodibenzo[b,f][1,4]oxazepin-11-yl)benzamide], the IC50 in assay [1] (setting [3]) lay in the range of 5 to 15 µM; in assay [2] (Table 8) it was 0.1 to 1 µM.
On the same counts, the results for `COCCOc1cccc2c1Oc1ccccc1N=C2c1ccc(C(=O)NO)cc1` [(Z)—N-hydroxy-4-(4-(2-methoxyethoxy)dibenzo[b,f][1,4]oxazepin-11-yl)benzamide] are 1 to 5 µM and less than 0.05 µM.
Consider `O=C(NO)c1ccc(C2=Nc3ccccc3Oc3c(OCCN4CCOCC4)cccc32)cc1` [(Z)—N-hydroxy-4-(4-(2-morpholinoethoxy)dibenzo[b,f][1,4]oxazepin-11-yl)benzamide], for which the IC50 in assay [1] (setting [3]) is less than 1 µM; in assay [2] (Table 8) it was less than 0.05 µM.
With `C[S+]([O-])c1cccc2c1Oc1ccccc1N=C2c1ccc(C(=O)NO)cc1` (centres unmarked) [(Z)—N-hydroxy-4-(4-(methylsulfinyl)dibenzo[b,f][1,4]oxazepin-11-yl)benzamide], the figures for the IC50 in assay [1] (setting [3]) and in assay [2] (Table 8) were 1 to 5 µM and 0.05 to 0.1 µM, respectively.
On the same counts, the results for `CS(=O)(=O)c1cccc2c1Oc1ccccc1N=C2c1ccc(C(=O)NO)cc1` [(Z)—N-hydroxy-4-(4-(methylsulfonyl)dibenzo[b,f][1,4]oxazepin-11-yl)benzamide] are 1 to 5 µM and less than 0.05 µM.
`CSc1cccc2c1Oc1ccccc1N=C2c1ccc(C(=O)NO)cc1` [(Z)—N-hydroxy-4-(4-(methylthio)dibenzo[b,f][1,4]oxazepin-11-yl)benzamide]: the IC50 was 1 to 5 µM in assay [1] (setting [3]) and less than 0.05 µM in assay [2] (Table 8).
On to `O=C(NO)c1ccc(C2=Nc3ccccc3Oc3c(OC(F)(F)F)cccc32)cc1` [(Z)—N-hydroxy-4-(4-(trifluoromethoxy)dibenzo[b,f][1,4]oxazepin-11-yl)benzamide], for which the IC50 in assay [1] (setting [3]) was greater than 15 µM; in assay [2] (Table 8) it was 0.1 to 1 µM.
In the case of `O=C(NO)c1ccc(C2=Nc3ccccc3Oc3c2cccc3C(F)(F)F)cc1` [(Z)—N-hydroxy-4-(4-(trifluoromethyl)dibenzo[b,f][1,4]oxazepin-11-yl)benzamide], the results for the IC50 in assay [1] (setting [3]) and in assay [2] (Table 8) were greater than 15 µM and less than 0.05 µM, respectively.
Regarding `O=C(NO)c1ccc(C2=Nc3ccccc3Oc3c(O)cccc32)cc1` [(Z)—N-hydroxy-4-(4-hydroxydibenzo[b,f][1,4]oxazepin-11-yl)benzamide], the values for the IC50 in assay [1] (setting [3]) and in assay [2] (Table 8) were less than 1 µM and 0.05 to 0.1 µM, respectively.
On to `COc1cccc2c1Oc1ccccc1N=C2c1ccc(C(=O)NO)cc1` [(Z)—N-hydroxy-4-(4-methoxydibenzo[b,f][1,4]oxazepin-11-yl)benzamide], for which the IC50 was in the range of 1 to 5 µM in assay [1] (setting [3]) and 0.05 to 0.1 µM in assay [2] (Table 8).
On the same counts, the results for `Cc1cccc2c1Oc1ccccc1N=C2c1ccc(C(=O)NO)cc1` [(Z)—N-hydroxy-4-(4-methyldibenzo[b,f][1,4]oxazepin-11-yl)benzamide] are 1 to 5 µM and 0.05 to 0.1 µM.
On the same counts, the results for `CCCc1cccc2c1Oc1ccccc1N=C2c1ccc(C(=O)NO)cc1` [(Z)—N-hydroxy-4-(4-propyldibenzo[b,f][1,4]oxazepin-11-yl)benzamide] are greater than 15 µM and 0.1 to 1 µM.
The like results for `COCCN1c2ccccc2N=C(c2ccc(C(=O)NO)cc2)c2ccccc21` [(Z)—N-hydroxy-4-(5-(2-methoxyethyl)-5H-dibenzo[b,e][1,4]diazepin-11-yl)benzamide] were, in that order, 1 to 5 µM and 0.1 to 1 µM.
As for `CC(C)N1c2ccccc2N=C(c2ccc(C(=O)NO)cc2)c2ccccc21` [(Z)—N-hydroxy-4-(5-isopropyl-5H-dibenzo[b,e][1,4]diazepin-11-yl)benzamide], the results for the IC50 in assay [1] (setting [3]) and in assay [2] (Table 8) were less than 1 µM and less than 0.05 µM, respectively.
As for `Cc1cccc2c1Oc1ccccc1C(c1ccc(C(=O)NO)cc1)=N2` [(Z)—N-hydroxy-4-(6-methyldibenzo[b,f][1,4]oxazepin-11-yl)benzamide], the IC50 was 5 to 15 µM in assay [1] (setting [3]) and 0.1 to 1 µM in assay [2] (Table 8).
Consider `O=C(NO)c1ccc(C2=Nc3ccc(C(F)(F)F)cc3Oc3ccccc32)cc1` [(Z)—N-hydroxy-4-(7-(trifluoromethyl)dibenzo[b,f][1,4]oxazepin-11-yl)benzamide], for which the IC50 is greater than 15 µM in assay [1] (setting [3]) and 0.1 to 1 µM in assay [2] (Table 8).
The like results for `O=C(NO)c1ccc(C2=Nc3cc(C(F)(F)F)ccc3Oc3ccccc32)cc1` [(Z)—N-hydroxy-4-(8-(trifluoromethyl)dibenzo[b,f][1,4]oxazepin-11-yl)benzamide] were, in that order, 5 to 15 µM and 0.1 to 1 µM.
